Experimental data published in patent US4560662A, “Streptomyces antibioticus ATCC 31771 and process for obtaining same” (priority 1981, dated 1985).
Values after ≈ are worked out from the molar mass of the structure shown. Like-named read-outs stand apart in the source and are kept apart here.

What was measured:
Salmonella typhi LRP 8 = test: Bacteriostatic power in solid medium (MIC), aerobic Gram negative; assay type: cell-based; conditions: Salmonella enterica, TYPHI, read-out: minimum inhibiting concentration
Bacillus subtilis LRP 25 = test: Bacteriostatic power in solid medium (MIC), aerobic Gram positive; assay type: cell-based; conditions: Bacillus subtilis, LRP25, read-out: minimum inhibiting concentration
[1] = test system: Clostridium perfrigens ATCC 3624; test: Bacteriostatic power in solid medium (MIC), anaerobic; assay type: cell-based; conditions: Clostridium, ATCC3624, LRP 206, read-out: minimum inhibiting concentration
[2] = test system: Staphylococcus aureus LRP 14; test: Bacteriostatic power in solid medium (MIC), aerobic Gram positive; assay type: cell-based; conditions: Staphylococcus aureus, LRP14, read-out: minimum inhibiting concentration
[3] = test system: Acholeplasma laidlawii ATCC 23206; test: Bacteriostatic power in solid medium (MIC), aerobic Gram negative; assay type: cell-based; conditions: Acholeplasma laidlawii, ATCC23206, read-out: minimum inhibiting concentration
physchem = assay type: physicochemical; conditions: acidic environment
Source text: t 1/2 represents the half life time of the antibiotics as determined by
high pressure liquid phase chromatography (HPLC).

[4] = test system: Staphylococcus aureus ATCC 6538 P; test: Bacteriostatic power in solid medium (MIC), aerobic Gram positive; assay type: cell-based; conditions: Staphylococcus aureus, ATCC6538, read-out: minimum inhibiting concentration
Escherichia coli LRP 50 = test: Bacteriostatic power in solid medium (MIC), aerobic Gram negative; assay type: cell-based; conditions: Escherichia coli, LRP50, read-out: minimum inhibiting concentration
[5] = test system: Micrococcus luteus ATCC 9341; test: Bacteriostatic power in solid medium (MIC), aerobic Gram positive; assay type: cell-based; conditions: Micrococcus luteus, ATCC9341, read-out: minimum inhibiting concentration
[6] = test system: Neisseria Gonorrhoeae ATCC 19424; test: Bacteriostatic power in solid medium (MIC), aerobic Gram negative; assay type: cell-based; conditions: Neisseria gonorrhoeae, ATCC19424, read-out: minimum inhibiting concentration
[7] = test system: Mycoplasma hominis I ATCC 14097; test: as above; assay type: cell-based; conditions: Metamycoplasma hominis, ATCC14097, read-out: minimum inhibiting concentration
[8] = test system: Klebsiella pneumoniae LRP 54; test: as above; assay type: cell-based; conditions: Klebsiella pneumoniae, LRP54, read-out: minimum inhibiting concentration
[9] = test system: Bacteroides fragilis ATCC 23745; test: Bacteriostatic power in solid medium (MIC), anaerobic; assay type: cell-based; conditions: Bacteroides fragilis, ATCC23745, read-out: minimum inhibiting concentration
[10] = test system: Corynebacterium diphteriae LRP 24; test: Bacteriostatic power in solid medium (MIC), aerobic Gram positive; assay type: cell-based; conditions: Corynebacterium, LRP24, read-out: minimum inhibiting concentration
[11] = test system: Streptococcus pneumonieae ATCC 6303; test: as above; assay type: cell-based; conditions: Streptococcus, ATCC6303, read-out: minimum inhibiting concentration
[12] = test system: Micrococcus luteus ATCC 15957; test: as above; assay type: cell-based; conditions: Micrococcus luteus, ATCC15957, LRP 193, Erythromicina resistant, read-out: minimum inhibiting concentration
Source text: (§1) Turning now to an examination of the novel macrolide antibiotics produced according to the present invention, they are all characterized by a bacteriostatic spectrum like that of erythromycin and by the stability in acidic environment, whereby their direct administration by oral route is possible, without having recourse to esters and/or salts, showing the afore mentioned disadvantages and problems. The above is confirmed by the following Table 1, wherein the MIC values are reported, indicating the bacteriostatic power, and by the Table 2, giving the stability values in acidic environment. Without having to be construed in a limiting sense, it seems plausible that the greater stability of the macrolide. antibiotics of the present invention can be attributed to the presence in the molecule of the antibiotic of the neutral sugar oleandrose (J. Antib. (1976) XXIX (7), 728).
(§2) Bacteriostatic power in solid medium of Erythromycin A, Erythromycin B,
(§3) aerobic and anaerobic bacteria, Gram positive and Gram negative minimum
(§4) inhibiting concentrations expressed in mcg/ml.

[13] = test system: Staphylococcus aureus ATCC 14154; test: as above; assay type: cell-based; conditions: Staphylococcus aureus, ATCC14154, LRP 78, Erythromicina resistant, read-out: minimum inhibiting concentration
Source text: as §1, §2, §3, §4

[14] = test system: Haemophilus influenzae ATCC 19418; test: Bacteriostatic power in solid medium (MIC), aerobic Gram negative; assay type: cell-based; conditions: Haemophilus influenzae, ATCC19418, LRP 213, read-out: minimum inhibiting concentration
Source text: as §1, §2, §3, §4

Shigella sonnei LRP 5 = test: as above; assay type: cell-based; conditions: Shigella sonnei, LRP5, read-out: minimum inhibiting concentration
Source text: as §1, §2, §3, §4

[15] = test system: Pseudomonas aeruginosa LRP 9; test: as above; assay type: cell-based; conditions: Pseudomonas aeruginosa, LRP9, read-out: minimum inhibiting concentration
Source text: as §1, §2, §3, §4

[16] = test system: Proteus vulgaris ATCC 6380; test: as above; assay type: cell-based; conditions: Proteus vulgaris, ATCC6380, read-out: minimum inhibiting concentration
[17] = test system: Streptococcus faecalis sub. zymogenes ATCC 12958; test: Bacteriostatic power in solid medium (MIC), aerobic Gram positive; assay type: cell-based; conditions: Enterococcus faecalis, ATCC12958, read-out: minimum inhibiting concentration
[18] = test system: Streptococcus pyogenes LRP 197; test: as above; assay type: cell-based; conditions: Streptococcus pyogenes, LRP197, read-out: minimum inhibiting concentration
[19] = test system: Fusobacterium necrophorum ATCC 27852; test: Bacteriostatic power in solid medium (MIC), anaerobic; assay type: cell-based; conditions: Fusobacterium necrophorum, ATCC27852, read-out: minimum inhibiting concentration
[20] = test system: Streptococcus pneumonieae LRP 53; test: Bacteriostatic power in solid medium (MIC), aerobic Gram positive; assay type: cell-based; conditions: Streptococcus, LRP53, read-out: minimum inhibiting concentration
[21] = test system: Streptococcus pneumonieae LRP 52; test: as above; assay type: cell-based; conditions: Streptococcus, LRP52, read-out: minimum inhibiting concentration
[22] = test system: Streptococcus faecalis LRP 7; test: as above; assay type: cell-based; conditions: Enterococcus faecalis, LRP7, read-out: minimum inhibiting concentration
[23] = test system: Streptococcus pyogenes ATCC 8668; test: as above; assay type: cell-based; conditions: Streptococcus pyogenes, ATCC8668, read-out: minimum inhibiting concentration
[24] = Relative solubility in water phase (extraction, TLC and HPLC control); assay type: physicochemical; conditions: relative to P 15148, P 15149 and P 15153; alkaline aqueous phase
Source text: Before each extraction the pH of the aqueous phase is brought again to 9.

In the case of `CC[C@H]1OC(=O)[C@H](C)[C@@H](O[C@H]2C[C@H](OC)[C@@H](O)[C@H](C)O2)[C@H](C)[C@@H](O[C@@H]2O[C@H](C)C[C@H](N(C)C)[C@H]2O)[C@](C)(O)C[C@@H](C)C(=O)[C@H](C)[C@@H](O)[C@H]1C` [P 15149, 3-O-oleandrosyl-5-O-desosaminyl-erythronolide B], the MIC (Salmonella typhi LRP 8) is reported as over 25 µg/mL, the MIC (Bacillus subtilis LRP 25) is reported as 0.039 µg/mL (≈ 0.0554 µM) and the MIC [1] is reported as 12.5 µg/mL (≈ 17.8 µM). The MIC [2] was 0.78 µg/mL (≈ 1.11 µM), the MIC [3] was 12.5 µg/mL (≈ 17.8 µM) and the half-life (physchem; pH 2) was 18 h. The half-life (physchem; pH 3, read-out: t 1/2) was over 100 h, the half-life (physchem; pH 4, read-out: t 1/2) was over 100 h and the MIC [4] was 0.78 µg/mL (≈ 1.11 µM). It also gave an MIC (Escherichia coli LRP 50) of over 25 µg/mL, an MIC [5] of 0.097 µg/mL (≈ 0.138 µM) and an MIC [6] of 0.195 µg/mL (≈ 0.277 µM). The MIC [7] was over 25 µg/mL, the MIC [8] was over 25 µg/mL and the MIC [9] was 3.12 µg/mL (≈ 4.43 µM). For the same compound, the MIC [10] was 0.049 µg/mL (≈ 0.0696 µM), the MIC [11] was 0.097 µg/mL (≈ 0.138 µM) and the MIC [12] was over 25 µg/mL. For the same compound, the MIC [13] was over 25 µg/mL, the MIC [14] was 6.25 µg/mL (≈ 8.88 µM) and the MIC (Shigella sonnei LRP 5) was over 25 µg/mL. For the same compound, the MIC [15] was over 25 µg/mL, the MIC [16] was over 25 µg/mL and the MIC [17] was 0.78 µg/mL (≈ 1.11 µM). For the same compound, the MIC [18] was 0.097 µg/mL (≈ 0.138 µM), the MIC [19] was over 25 µg/mL and the MIC [20] was 0.097 µg/mL (≈ 0.138 µM). It also gave an MIC [21] of 0.097 µg/mL (≈ 0.138 µM), an MIC [22] of 0.78 µg/mL (≈ 1.11 µM) and an MIC [23] of 0.097 µg/mL (≈ 0.138 µM).
For `CO[C@H]1C[C@H](O[C@H]2[C@H](C)[C@@H](O[C@@H]3O[C@H](C)C[C@H](N(C)C)[C@H]3O)[C@](C)(O)C[C@@H](C)C(=O)[C@H](C)[C@@H](O)[C@@H](C)[C@@H](CCO)OC(=O)[C@@H]2C)O[C@@H](C)[C@@H]1O` [P 15150, 3-O-oleandrosyl-5-O-desosaminyl-15-hydroxyerythronolide B], the MIC (Salmonella typhi LRP 8) was 25 µg/mL (≈ 34.7 µM), the MIC (Bacillus subtilis LRP 25) was 3.12 µg/mL (≈ 4.33 µM) and the MIC [1] was 6.25 µg/mL (≈ 8.68 µM). It also gave an MIC [2] of 3.12 µg/mL (≈ 4.33 µM), an MIC [3] of 6.25 µg/mL (≈ 8.68 µM) and a half-life (physchem; pH 2, read-out: t 1/2) of over 100 h. For the same compound, the half-life (physchem; pH 3, read-out: t 1/2) was over 100 h, the half-life (physchem; pH 4, read-out: t 1/2) was over 100 h and the MIC [4] was 3.12 µg/mL (≈ 4.33 µM). For the same compound, the MIC (Escherichia coli LRP 50) was over 25 µg/mL, the MIC [5] was 0.195 µg/mL (≈ 0.271 µM) and the MIC [6] was 0.195 µg/mL (≈ 0.271 µM). For the same compound, the MIC [7] was over 25 µg/mL, the “solubility in water phase” value [24] was “more soluble than the others in water phase” and the MIC [8] was over 25 µg/mL. It also gave an MIC [9] of over 25 µg/mL, an MIC [10] of 0.097 µg/mL (≈ 0.135 µM) and an MIC [11] of 0.195 µg/mL (≈ 0.271 µM). The MIC [12] was over 25 µg/mL, the MIC [13] was over 25 µg/mL and the MIC [14] was over 25 µg/mL. For the same compound, the MIC (Shigella sonnei LRP 5) was over 25 µg/mL, the MIC [15] was over 25 µg/mL and the MIC [16] was over 25 µg/mL. For the same compound, the MIC [17] was 3.12 µg/mL (≈ 4.33 µM), the MIC [18] was 0.097 µg/mL (≈ 0.135 µM) and the MIC [19] was over 25 µg/mL. The MIC [20] was 0.39 µg/mL (≈ 0.542 µM), the MIC [21] was 0.195 µg/mL (≈ 0.271 µM) and the MIC [22] was 6.25 µg/mL (≈ 8.68 µM). The MIC [23] was 0.097 µg/mL (≈ 0.135 µM).
For `CC[C@H]1OC(=O)[C@H](C)[C@@H](O[C@H]2C[C@H](OC)[C@@H](O)[C@H](C)O2)[C@H](C)[C@@H](O[C@@H]2O[C@H](C)C[C@H](N(C)C)[C@H]2O)[C@](C)(O)C[C@](C)(O)C(=O)[C@H](C)[C@@H](O)[C@H]1C` [P 15148, 3-O-oleandrosyl-5-O-desosaminyl-(8S)-8-hydroxyerythronolide B], the MIC (Salmonella typhi LRP 8) was 25 µg/mL (≈ 34.7 µM), the MIC (Bacillus subtilis LRP 25) was 0.78 µg/mL (≈ 1.08 µM) and the MIC [1] was 25 µg/mL (≈ 34.7 µM). It also gave an MIC [2] of 1.56 µg/mL (≈ 2.17 µM), an MIC [3] of 6.25 µg/mL (≈ 8.68 µM) and a half-life (physchem; pH 2) of 27 h. The half-life (physchem; pH 3, read-out: t 1/2) was over 100 h, the half-life (physchem; pH 4, read-out: t 1/2) was over 100 h and the MIC [4] was 1.56 µg/mL (≈ 2.17 µM). It also gave an MIC (Escherichia coli LRP 50) of over 25 µg/mL, an MIC [5] of 0.049 µg/mL (≈ 0.0681 µM) and an MIC [6] of 1.56 µg/mL (≈ 2.17 µM). The MIC [7] was over 25 µg/mL, the MIC [8] was over 25 µg/mL and the MIC [9] was 6.25 µg/mL (≈ 8.68 µM). It also gave an MIC [10] of 0.097 µg/mL (≈ 0.135 µM), an MIC [11] of 0.195 µg/mL (≈ 0.271 µM) and an MIC [12] of over 25 µg/mL. It also gave an MIC [13] of over 25 µg/mL, an MIC [14] of over 25 µg/mL and an MIC (Shigella sonnei LRP 5) of over 25 µg/mL. It also gave an MIC [15] of over 25 µg/mL, an MIC [16] of over 25 µg/mL and an MIC [17] of 0.78 µg/mL (≈ 1.08 µM). For the same compound, the MIC [18] was 0.195 µg/mL (≈ 0.271 µM), the MIC [19] was over 25 µg/mL and the MIC [20] was 0.097 µg/mL (≈ 0.135 µM). For the same compound, the MIC [21] was 0.195 µg/mL (≈ 0.271 µM), the MIC [22] was 0.78 µg/mL (≈ 1.08 µM) and the MIC [23] was 0.195 µg/mL (≈ 0.271 µM).
